# Results from the supplement of paper PMC4862054.
# System: HDQ-P1
# Experiment: normalised response (% of control), CellTox Green; higher = less cell death (100 = DMSO, 0 = benzethonium chloride kill control)
# Details: incubation time: 72 h
# Summary of the method: (§1)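 Each entry is the normalised signal at a single concentration within a series. The series comprised 5 concentrations in 10-fold steps over a compound-specific 10,000-fold range, placed in 384-well plates into which breast cancer cell lines were seeded as 20 µl suspension and incubated 72 h. CellTox Green (485/520 nm) fluorescence and then CellTiter-Glo luminescence were read, with signals normalised per plate to 0.1 % DMSO (100) and a positive kill control (0).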
row,Compound,normalised response
1,CC1(C)CCC(CN2CCN(c3ccc(C(=O)NS(=O)(=O)c4ccc(NCC5CCOCC5)c([N+](=O)[O-])c4)c(Oc4cnc5[nH]ccc5c4)c3)CC2)=C(c2ccc(Cl)cc2)C1 [ABT-199] (1000 nM),104%
2,CC(=O)N(O)CCCCCNC(=O)CCC(=O)N(O)CCCCCNC(=O)CCC(=O)N(O)CCCCCN [Deferoxamine] (1000 nM),106%
3,C[C@]12CC[C@@H]3c4ccc(OC(=O)N(CCCl)CCCl)cc4CC[C@H]3[C@@H]1CC[C@@H]2O [Estramustine] (1000 nM),70.6%

# System: MDA-MB-453
# Experiment: as above
# Details: incubation time: 72 h
# Summary of the method: as §1
row,Compound,normalised response
1,CC1(C)CCC(CN2CCN(c3ccc(C(=O)NS(=O)(=O)c4ccc(NCC5CCOCC5)c([N+](=O)[O-])c4)c(Oc4cnc5[nH]ccc5c4)c3)CC2)=C(c2ccc(Cl)cc2)C1 [ABT-199] (1000 nM),99.2%
2,CC(=O)N(O)CCCCCNC(=O)CCC(=O)N(O)CCCCCNC(=O)CCC(=O)N(O)CCCCCN [Deferoxamine] (1000 nM),100%
3,C[C@]12CC[C@@H]3c4ccc(OC(=O)N(CCCl)CCCl)cc4CC[C@H]3[C@@H]1CC[C@@H]2O [Estramustine] (1000 nM),97.3%

# System: HCC1937
# Experiment: as above
# Details: incubation time: 72 h
# Summary of the method: as §1
row,Compound,normalised response
1,CC(=O)N(O)CCCCCNC(=O)CCC(=O)N(O)CCCCCNC(=O)CCC(=O)N(O)CCCCCN [Deferoxamine] (1000 nM),-39.7%
2,C[C@]12CC[C@@H]3c4ccc(OC(=O)N(CCCl)CCCl)cc4CC[C@H]3[C@@H]1CC[C@@H]2O [Estramustine] (1000 nM),67%

# System: HCC1599
# Experiment: as above
# Details: incubation time: 72 h
# Summary of the method: as §1
row,Compound,normalised response
1,CC1(C)CCC(CN2CCN(c3ccc(C(=O)NS(=O)(=O)c4ccc(NCC5CCOCC5)c([N+](=O)[O-])c4)c(Oc4cnc5[nH]ccc5c4)c3)CC2)=C(c2ccc(Cl)cc2)C1 [ABT-199] (1000 nM),92.1%
2,CC(=O)N(O)CCCCCNC(=O)CCC(=O)N(O)CCCCCNC(=O)CCC(=O)N(O)CCCCCN [Deferoxamine] (1000 nM),96.7%
3,C[C@]12CC[C@@H]3c4ccc(OC(=O)N(CCCl)CCCl)cc4CC[C@H]3[C@@H]1CC[C@@H]2O [Estramustine] (1000 nM),90.2%

# System: CAL-120
# Experiment: as above
# Details: incubation time: 72 h
# Summary of the method: as §1
row,Compound,normalised response
1,CC1(C)CCC(CN2CCN(c3ccc(C(=O)NS(=O)(=O)c4ccc(NCC5CCOCC5)c([N+](=O)[O-])c4)c(Oc4cnc5[nH]ccc5c4)c3)CC2)=C(c2ccc(Cl)cc2)C1 [ABT-199] (1000 nM),89.8%
2,CC(=O)N(O)CCCCCNC(=O)CCC(=O)N(O)CCCCCNC(=O)CCC(=O)N(O)CCCCCN [Deferoxamine] (1000 nM),96.8%
3,C[C@]12CC[C@@H]3c4ccc(OC(=O)N(CCCl)CCCl)cc4CC[C@H]3[C@@H]1CC[C@@H]2O [Estramustine] (1000 nM),93.9%

# System: CAL-148
# Experiment: as above
# Details: incubation time: 72 h
# Summary of the method: as §1
row,Compound,normalised response
1,CC1(C)CCC(CN2CCN(c3ccc(C(=O)NS(=O)(=O)c4ccc(NCC5CCOCC5)c([N+](=O)[O-])c4)c(Oc4cnc5[nH]ccc5c4)c3)CC2)=C(c2ccc(Cl)cc2)C1 [ABT-199] (1000 nM),71.6%
2,CC(=O)N(O)CCCCCNC(=O)CCC(=O)N(O)CCCCCNC(=O)CCC(=O)N(O)CCCCCN [Deferoxamine] (1000 nM),2.01%
3,C[C@]12CC[C@@H]3c4ccc(OC(=O)N(CCCl)CCCl)cc4CC[C@H]3[C@@H]1CC[C@@H]2O [Estramustine] (1000 nM),46.8%

# System: BT-474
# Experiment: normalised response (% of control), CellTiter-Glo; higher = more viable cells (100 = DMSO, 0 = benzethonium chloride kill control)
# Details: incubation time: 72 h
# Summary of the method: as §1
row,Compound,normalised response
1,CC1(C)CCC(CN2CCN(c3ccc(C(=O)NS(=O)(=O)c4ccc(NCC5CCOCC5)c([N+](=O)[O-])c4)c(Oc4cnc5[nH]ccc5c4)c3)CC2)=C(c2ccc(Cl)cc2)C1 [ABT-199] (1000 nM),95.4%
2,CC(=O)N(O)CCCCCNC(=O)CCC(=O)N(O)CCCCCNC(=O)CCC(=O)N(O)CCCCCN [Deferoxamine] (1000 nM),90.9%
3,C[C@]12CC[C@@H]3c4ccc(OC(=O)N(CCCl)CCCl)cc4CC[C@H]3[C@@H]1CC[C@@H]2O [Estramustine] (1000 nM),96.1%
4,Cc1ccc([N+](=O)[O-])cc1S(=O)(=O)N(C)/N=C/c1cnc2ccc(Br)cn12 [PIK-75] (1 nM),89.6%
5,Cc1ccc([N+](=O)[O-])cc1S(=O)(=O)N(C)/N=C/c1cnc2ccc(Br)cn12 [PIK-75] (10 nM),83.5%
6,CC(=O)c1c(C)c2cnc(Nc3ccc(N4CCNCC4)cn3)nc2n(C2CCCC2)c1=O [Palbociclib] (1 nM),89.6%
7,CC(=O)c1c(C)c2cnc(Nc3ccc(N4CCNCC4)cn3)nc2n(C2CCCC2)c1=O [Palbociclib] (10 nM),97.2%
8,CC[C@@H]1C(=O)OC[C@@H]1Cc1cncn1C [Pilocarpine] (40 nM),94.3%
9,COc1cc(F)c(F)c(Nc2ccc(I)cc2F)c1NS(=O)(=O)C1(C[C@H](O)CO)CC1 [Refametinib] (1 nM),91.2%
10,COc1cc(F)c(F)c(Nc2ccc(I)cc2F)c1NS(=O)(=O)C1(C[C@H](O)CO)CC1 [Refametinib] (10 nM),95.5%
11,CC(C)(C)c1cnc(CSc2cnc(NC(=O)C3CCNCC3)s2)o1 [SNS-032] (10 nM),93.4%
12,Cn1cnc2c(F)c(Nc3ccc(Br)cc3Cl)c(C(=O)NOCCO)cc21 [Selumetinib] (10 nM),89.8%

# System: MDA-MB-231
# Experiment: as above
# Details: incubation time: 72 h
# Summary of the method: as §1
row,Compound,normalised response
1,CC1(C)CCC(CN2CCN(c3ccc(C(=O)NS(=O)(=O)c4ccc(NCC5CCOCC5)c([N+](=O)[O-])c4)c(Oc4cnc5[nH]ccc5c4)c3)CC2)=C(c2ccc(Cl)cc2)C1 [ABT-199] (1000 nM),99.3%
2,CC(=O)N(O)CCCCCNC(=O)CCC(=O)N(O)CCCCCNC(=O)CCC(=O)N(O)CCCCCN [Deferoxamine] (1000 nM),86.8%
3,C[C@]12CC[C@@H]3c4ccc(OC(=O)N(CCCl)CCCl)cc4CC[C@H]3[C@@H]1CC[C@@H]2O [Estramustine] (1000 nM),94.4%
4,Cc1ccc([N+](=O)[O-])cc1S(=O)(=O)N(C)/N=C/c1cnc2ccc(Br)cn12 [PIK-75] (1 nM),92.9%
5,Cc1ccc([N+](=O)[O-])cc1S(=O)(=O)N(C)/N=C/c1cnc2ccc(Br)cn12 [PIK-75] (10 nM),88.9%
6,CC(=O)c1c(C)c2cnc(Nc3ccc(N4CCNCC4)cn3)nc2n(C2CCCC2)c1=O [Palbociclib] (1 nM),91.6%
